Measurements from US20170271704A1, “MITIGATION OF CROSSOVER WITHIN FLOW BATTERIES” (LOCKHEED MARTIN ADVANCED ENERGY STORAGE,LLC, priority 2016, published 2017).

Legend:
[1] = Aqueous solubility (Table 1 comparison of positive half-cell active materials); conditions: effective concentration of transferrable electrons (solubility x electrons transferred)
[2] = in water; active material for positive half-cell of a flow battery; cited from earlier work

## Fe(CN)6^3−^/4−
[1]
  Electron Aqueous Solubility: 1300 to 1600 mM
[2]
  Aqueous Solubility: 1300 to 1600 mM
